Test results taken from PMC10648349, “Aromatic Diboronic Acids as Effective KPC/AmpC Inhibitors” (Molecules, 2023).
In brackets after ≈: the same amount, converted by molar mass. Several values for one entry are separate records, joined by “and”; a condition that tells them apart may be missing. Equal entries are not always repeated.

Key:
[1] = test system: KPC producers; experiment: microdilution with carbapenems; type: cell-based
Description: (§1) To examine the ability of tested agents to inhibit various carbapenemases and AmpC-enzymes, their synergy with antibiotics against β-lactamase-producing strains was assessed by checkerboard microdilution assay, with slight modification. Checkerboards were prepared in microtiter plates, with seven two-fold dilutions of β-lactams (1–64 mg/L) in the rows and three two-fold dilutions of tested agents and PBA (4–16 mg/L) in the columns. Tested agents’ concentrations were limited to the concentrations at which the newest commercially available BLIs (vaborbactam, relebactam, and avibactam) are used in susceptibility testing. Plates were inoculated and incubated as in the MIC microdilution assay. Parallel, MICs of tested agents and PBA alone were determined by the microdilution assay. Following the incubation, antibiotic MICs in the presence of each agent’s concentration were determined. Moreover, for the first well without growth found in each checkerboard row and column along the growth/non-growth interface, the fractional inhibitory concentration index (FICI) was calculated using the formula below:FICI = [(MIC of antibiotic in combination)/(MIC of antibiotic alone)] + [(MIC of the tested agent in combination)/(MIC of tested agent alone)].
For calculations, all off-scale MICs were converted to the next-highest doubling concentration. Subsequently, both the average and the lowest FICI were interpreted. The interpretation was as follows: FICI ≤ 0.5, synergy; 0.5 < FICI ≤ 4, indifference and FICI > 4, antagonism. Primarily, examined combinations consisted of meropenem (Pol-Aura, Morag, Poland) plus tested agents against carbapenemases-producing strains and ceftazidime (Pol-Aura, Morag, Poland) plus tested agents against AmpC-producing strains. For agents that reduced meropenem MIC at least 4-fold for at least two tested strains, similar assays were performed with imipenem (Pol-Aura, Morag, Poland) and ertapenem (Pol-Aura, Morag, Poland).

[2] = test system: E. coli 76 KPC-2-positive; experiment: checkerboard microdilution, antibiotic plus tested agent; type: cell-based, Escherichia coli
How it was run: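 Chequerboard layout: tested agent in three two-fold steps (4–16 mg/L) crossed with seven β-lactam dilutions (1–64 mg/L), meropenem for KPC strains and ceftazidime for the cAmpC strain. FICI from first non-growth wells, off-scale MICs raised one doubling; ≤0.5 counts as synergy, >4 antagonism.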

[3] = test system: E. coli DH5α; experiment: whole cell assay, meropenem MIC with tested agent; type: cell-based, Escherichia coli; settings: for MIC: Escherichia coli, read-out: MIC of agent alone; for MIC of meropenem in combination with agent: agent 16 mg/L
Description: as §1

[4] = test system: E. coli 82 TR(pl 81), transformant carrying blaKPC-3; experiment: whole cell assay, meropenem MIC with tested agent; type: cell-based, Escherichia coli; settings: for MIC: Escherichia coli, read-out: MIC of agent alone
Description: as §1

[5] = target: KPC-3 in purified protein extract from E. coli 82 TR(pl 81) (Klebsiella pneumoniae, UniProt Q9F663, H272Y); experiment: nitrocefin hydrolysis test; type: biochemical; settings: single repetitions
Description: Overnight culture of E. coli 82 TR(pl 81) in MHB was diluted 1:100 into fresh MHB and incubated with shaking at 37 °C until an OD600 of 1 was attained. […] Further incubation was performed under the same conditions until an OD600 of 3 was reached. The culture with the required OD600 was centrifuged (6700× g, 10 min) and the supernatant was discarded. From the obtained bacterial cell pellet total proteins were extracted with the ReadyPreps™ Protein Preparation Kit (Epicentre Biotechnologies, Madison, WI, USA) and used in the subsequent nitrocefin hydrolysis test, performed in a 96-well microplate. Nitrocefin is a chromogenic cephalosporin substrate routinely used to detect the presence of β-lactamases. First, 20 μL of the protein extract was mixed with 80 μL of tested agents (1a, 2a, 3a and PBA as a reference BLI, each examined at concentrations: 4, 8 and 16 mg/L) or with 80 μL of the phosphate buffer (positive control—corresponding to KPC enzyme activity in the purified total proteins extracted from E. coli 82 TR(pl 81) cells). After 10 min of incubation at the room temperature 100 μL of the nitrocefin (Oxoid, Basingstoke, Hampshire, England) was added to reach its final concentration of 150 μM. β-lactamases hydrolyze the β-lactam ring of nitrocefin, causing its degradation and color change. Nitrocefin hydrolysis was evaluated after 3 min of the incubation at room temperature.
As in our previous publication the presence of β-lactamases in the purified protein extract with and without tested agents was assessed by the spectrophotometric measurement of the rates of nitrocefin hydrolysis as relative absorbance at 486 nm. The level of the measured absorbance indicated β-lactamase activity. Finally, the difference in the relative absorbance between the positive control and the sample concentration of the tested inhibitors was calculated and expressed as a percentage. A reduction in the relative absorbance level in the presence of a tested agent was taken as an indicator of the BLI activity of a used aromatic diboronic acid. The experiment was performed in triplicate.

[6] = test system: Gram-positive strains; experiment: direct antimicrobial activity, MIC; type: cell-based
Description: Direct antimicrobial activity against Gram-negative and Gram-positive bacterial strains, as well as against yeast, was examined as previously described by the disc-diffusion test, the MIC determination assay, the MBC (for bacteria), and the MFC (for yeasts) determination tests. All the above-mentioned tests were performed according to EUCAST [71, 72] and CLSI [73, 74, 75, 76, 77] recommendations. The following reference agents were used: nitrofurantoin (for Gram-negative rods), linezolid (for Gram-positive bacteria), and fluconazole (in the case of fungi). The new aromatic diboronic acids were dissolved in DMSO (Sigma, St. Louis, MO, USA). In the disc-diffusion test, the concentration of new agents was 0.4 mg per disc. Depending on the solubility, the MIC and MBC/MFC values were determined up to 100 mg/L for 1k, up to 200 mg/L for 7c, and up to 400 mg/L for the remaining compounds: 1a–1j, 2a–2g, 3a–3f, 4a–4b, 5a–5c, 6a and 7a–7b.

Chain of KPC-3 in purified protein extract from E. coli 82 TR(pl 81) (Q9F663 25-293 H272Y): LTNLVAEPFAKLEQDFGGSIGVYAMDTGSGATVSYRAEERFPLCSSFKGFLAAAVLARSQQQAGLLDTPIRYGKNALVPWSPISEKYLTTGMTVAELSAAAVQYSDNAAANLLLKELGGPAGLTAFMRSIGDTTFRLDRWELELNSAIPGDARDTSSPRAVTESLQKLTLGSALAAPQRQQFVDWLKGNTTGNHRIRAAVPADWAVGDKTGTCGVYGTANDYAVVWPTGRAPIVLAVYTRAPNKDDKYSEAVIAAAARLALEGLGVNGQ

MIC ([6]; enterococci) [µg/mL] | MIC ([6]; staphylococci) [µg/mL] | Compound | Average FICI with ERT [2] | Average FICI with IMI [2] | Average FICI with MEM [2] | The lowest FICI with ERT [2] | The lowest FICI with IMI [2] | The lowest FICI with MEM [2] | other results
 |  | OB(O)c1ccc(B(O)O)cc1 [1a] | 0.22 | 0.30 | 0.31 | 0.15 | 0.15 | 0.15 | carbapenems' MIC reduction, up to ([1]; agent 4 mg/L): ≤ 2 fold; carbapenems' MIC reduction, up to ([1]; agent 8 mg/L): up to 8 fold; ertapenem potentiation better than PBA, by up to ([1]; all KPC producers): up to 8 fold; MIC [3]: > 400 µg/mL; MIC of meropenem in combination with agent [3]: 0.016 µg/mL; MIC [4]: > 400 µg/mL; MIC of meropenem in combination with agent ([4]; agent 4 mg/L): 0.50 µg/mL; MIC of meropenem in combination with agent ([4]; agent 8 mg/L): 0.25 µg/mL; MIC of meropenem in combination with agent ([4]; agent 16 mg/L): 0.125 µg/mL; Relative absorbance (nitrocefin hydrolysis, 486 nm) ([5]; agent 4 mg/L): 1.348 and 1.320 and 1.308; Relative absorbance (nitrocefin hydrolysis, 486 nm) ([5]; agent 8 mg/L): 1.214 and 1.079 and 1.201; Relative absorbance (nitrocefin hydrolysis, 486 nm) ([5]; agent 16 mg/L): 0.998 and 1.066 and 1.076
 |  | OB(O)c1ccc(B(O)O)c(F)c1 [1b] | 0.32 | 0.32 | 0.36 | 0.17 | 0.17 | 0.27 | 
100 to 400 (≈ 496 to 1980 µM) | 12.5 to 50 (≈ 62 to 248 µM) | OB(O)c1ccc(B(O)O)c(F)c1F [1c] |  |  |  |  |  |  | 
 |  | OB(O)c1cc(F)c(B(O)O)c(F)c1 [1d] | 0.36 | 0.44 | 0.44 | 0.27 | 0.29 | 0.29 | 
100 to 400 (≈ 496 to 1980 µM) | 12.5 to 50 (≈ 62 to 248 µM) | OB(O)c1cc(F)c(B(O)O)cc1F [1e] | 0.39 | 0.51 | 0.51 | 0.29 | 0.41 | 0.41 | 
 |  | OB(O)c1cccc(B(O)O)c1 [2a] |  |  |  |  |  |  | MIC [3]: > 400 µg/mL; MIC of meropenem in combination with agent [3]: 0.016 µg/mL; MIC [4]: > 400 µg/mL; MIC of meropenem in combination with agent ([4]; agent 4 mg/L): 1 µg/mL; MIC of meropenem in combination with agent ([4]; agent 8 mg/L): 1 µg/mL; MIC of meropenem in combination with agent ([4]; agent 16 mg/L): 1 µg/mL; meropenem MIC reduction ([4]; agent 4, 8 and 16 mg/L): 2 fold; Relative absorbance (nitrocefin hydrolysis, 486 nm) ([5]; agent 4 mg/L): 1.605 and 1.649 and 1.595; Relative absorbance (nitrocefin hydrolysis, 486 nm) ([5]; agent 8 mg/L): 1.520 and 1.499 and 1.528; Relative absorbance (nitrocefin hydrolysis, 486 nm) ([5]; agent 16 mg/L): 1.377 and 1.274 and 1.280

Compound | MIC ([6]; enterococci) [µg/mL] | MIC ([6]; staphylococci) [µg/mL] | Average FICI with ERT [2] | Average FICI with IMI [2] | Average FICI with MEM [2] | The lowest FICI with ERT [2] | The lowest FICI with IMI [2] | The lowest FICI with MEM [2] | other results
OB(O)c1cc(C(F)(F)F)cc(B(O)O)c1F [2e] | 50 to 100 (≈ 199 to 397 µM) | 0.78 to 12.5 (≈ 3.1 to 49.7 µM) |  |  |  |  |  |  | 
